Test results from US10647677B2, “Analogues of hydroxychloroquine (HCQ) without retinal toxicity” (Inoviem Scientific, priority 2015, dated 2020).
Like-named read-outs stand apart in the source and are kept apart here.

Experiments:
[1] = target: T1, αB-crystalline (αB-C) (Homo sapiens, UniProt P02511); experiment: Surface plasmon resonance (Biacore 3000) affinity on αB-crystalline; type: binding; conditions: SPR at 25° C.; for Kd: read-out: Kd (M) on crystallin
T1 construct: purchased
T1 sequence (P02511 1-175): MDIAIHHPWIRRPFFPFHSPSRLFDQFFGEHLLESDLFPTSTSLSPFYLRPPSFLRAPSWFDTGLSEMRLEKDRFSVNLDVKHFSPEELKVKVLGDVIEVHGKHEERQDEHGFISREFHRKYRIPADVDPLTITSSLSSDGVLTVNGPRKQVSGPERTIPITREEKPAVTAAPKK
Procedure: (§1) Using the surface plasmon resonance technology (Biacore 3000), the interaction constants between HCQ analogues (HCQa) and myeloperoxidase (MPO) targets and αB-crystalline (αB-C) were measured at 25° C. according to 12 different series of experiments. First, HCQ analogues at five different concentrations (10^−6 to 10^−8 M) were injected at a rate of 10^−6 L/min for 250 s on the MPO and αB-C targets as well as on the ERK1 and ERK2 controls, followed by a dissociation phase of 150 s.
(§2) The kinetic parameters were measured using the BIAevaluation 4.1 software. The set of resonance unit values obtained with the controls were subtracted from those obtained with MPO and αB-C to compensate for non-specific bonds.
(§3) The differences in Kd values for the myeloperoxidase (MPO) and αB-crystalline (αB-C) enzymes in Tables 1 and 2 are due to the variability of commercial batches. Nevertheless, the difference between the Kd of the compounds HCQ and CB137 remains identical according to these two tests.
(§4) Analysis of the compounds in the form of sulphate salts according to the method described above: […]

[2] = target: T2, myeloperoxidase (MPO) (Homo sapiens, UniProt P05164); experiment: Surface plasmon resonance (Biacore 3000) affinity on MPO; type: binding; conditions: SPR at 25° C.
T2 construct: purchased
T2 sequence (P05164 49-745): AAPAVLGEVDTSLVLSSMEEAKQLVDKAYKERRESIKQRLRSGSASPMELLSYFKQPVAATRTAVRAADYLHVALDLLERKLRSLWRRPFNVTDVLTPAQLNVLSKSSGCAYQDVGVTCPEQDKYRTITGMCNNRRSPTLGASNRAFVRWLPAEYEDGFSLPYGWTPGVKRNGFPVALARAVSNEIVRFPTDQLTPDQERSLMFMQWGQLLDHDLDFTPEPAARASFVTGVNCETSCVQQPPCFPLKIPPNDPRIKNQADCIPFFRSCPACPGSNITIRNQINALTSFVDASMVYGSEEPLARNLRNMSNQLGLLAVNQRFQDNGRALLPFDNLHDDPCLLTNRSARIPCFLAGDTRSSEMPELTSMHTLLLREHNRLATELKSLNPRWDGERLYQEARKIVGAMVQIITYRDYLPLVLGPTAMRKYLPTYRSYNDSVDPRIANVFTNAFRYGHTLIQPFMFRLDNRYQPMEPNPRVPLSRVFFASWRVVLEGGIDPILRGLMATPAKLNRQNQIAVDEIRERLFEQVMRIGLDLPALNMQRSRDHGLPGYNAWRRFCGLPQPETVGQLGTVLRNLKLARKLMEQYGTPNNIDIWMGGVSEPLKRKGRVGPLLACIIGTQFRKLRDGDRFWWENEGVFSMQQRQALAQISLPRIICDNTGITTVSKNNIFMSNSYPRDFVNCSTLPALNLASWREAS
Procedure: as §1, §2, §3, §4

[3] = Table 2, compounds in the form of sulphate salts

Row | SMILES | Kd ([1]; Table 1) [M] | Kd ([2]; Table 1) [nM] | Kd [1, 3] [M] | Kd [2, 3] [nM] | Kd (M) on crystallin ([1]; Table 1)
1 | CCN(CCO)CCC[C@@H](C)Nc1ccnc2cc(Cl)cc(Cl)c12 [CB321 R-enantiomer] | – | – | 1e-05 | 7000 | –
2 | CCN(CCO)CCCC(C)Nc1c(C(=O)C2CC2)cnc2cc(Cl)ccc12 (stereo not drawn) [CB103] | 6.6e-07 | 36 | – | – | –
3 | CCOC(=O)c1cnc2cc(Cl)ccc2c1NC(C)CCCN(CC)CCO (stereo not drawn) [NT36F9] | – | 7.5 | – | – | Kd not measurable because below the detection threshold
4 | CCN(CCO)CCCC(C)Nc1ccnc2cc(Cl)cc(Cl)c12 (stereo not drawn) [CB300] | – | – | 0.0002 | 4000 | –
5 | CCN(CCO)CCCC(C)Nc1ccnc2c(Cl)c(Cl)ccc12 (stereo not drawn) [CB317] | – | – | – | 9000 | –
6 | C#CCOCc1cnc2cc(Cl)ccc2c1NC(C)CCCN(CC)CCO (stereo not drawn) [NT69] | – | – | – | – | Kd not measurable because below the detection threshold
7 | CCN(CCO)CCCC(C)Nc1c(Cl)cnc2cc(Cl)ccc12 (stereo not drawn) [CB072] | 1.6e-07 | 1.1 | – | – | –
8 | CCN(CCO)CCCC(C)Nc1ccnc2cc(Cl)ccc12 (single isomer, unassigned) [CB133] | 2.19e-09 | 711 | – | – | –

The next lines start with results.

Row | Kd ([1]; Table 1) [M] | Kd ([2]; Table 1) [nM] | Kd [1, 3] [M] | Kd [2, 3] [nM] | SMILES | Kd (M) on crystallin ([1]; Table 1)
9 | 8.1e-07 | 14 | – | – | CCN(CCO)CCCC(C)Nc1c(C(F)(F)F)cnc2cc(Cl)ccc12 (stereo not drawn) [CB108] | –
10 | 3.5e-08 | 71 | – | – | CCN(CCO)CCCC(C)Nc1c(C#N)cnc2cc(Cl)ccc12 (stereo not drawn) [CB029] | –
11 | – | – | 0.0002 | 90 | CCN(CCO)CCC[C@@H](C)Nc1c(Cl)cnc2cc(Cl)ccc12 [CB323 R-enantioer] | –
12 | – | – | 2e-05 | 5000 | CCN(CCO)CCCC(C)Nc1c(C2CC2)cnc2cc(Cl)ccc12 (stereo not drawn) [CB341] | –
13 | 2.2e-05 | 60 | – | – | CCN(CCO)CCCC(C)Nc1c(C(=O)C(F)(F)F)cnc2cc(Cl)ccc12 (stereo not drawn) [CB114] | –
